Test results from PubChem BioAssay AID1963853 (Molecular Pharmacology Branch, DTP, NCI, 2024).
“And” between values parts separate entries of the source, which are not always exact repeats. Equal entries are not always repeated.

Test system: 266295-075-R-J1-PDC spheroid viability
Assay: Anticancer human tumor 266295-075-R-J1-PDC patient-derived head and neck squamous carcinoma cell line growth inhibition [POLQ]
Settings: spheroids with HUVEC and MSC; for viability, T/C: stronger effect = lower value
Method: Multicellular complex tumor spheroid response to Polymerase (POL) inhibitors (novobiocin, ART-558, RP6685) in combination with a variety of drugs and investigational agents in selected tumor cell lines
The POL inhibitors (novobiocin, ART-558, and RP6685) were evaluated both individually and in combination with standard of care and investigational anticancer small molecules within a complex spheroid model of solid tumors. . Complex spheroids include a stromal component modeled by human endothelial cells (HUVEC) and fibroblasts modeled by human mesenchymal stem cells (MSCs). The concentration ranges selected for each drug and investigational agent were based upon clinically achievable concentrations if the clinical Cmax of the agent was known.
Compounds. The drugs and investigational agents: novobiocin (NSC847541), ART-558 (NSC835418), RP-6685 (NSC848927), peposertib (NSC802822), ceralasertib (NSC780249), elimusertib (NSC800525), camonsertib (NSC841442), AZD-1390 (NSC803789), olaparib (NSC753686), talazoparib (NSC767125), rucaparib (NSC756644), sotorasib (NSC818433), MRTX-1133 (NSC836407), SN-38 (NSC673596), topotecan (NSC609699), epotoside (NSC141540), doxorubicin (NSC123127), gemcitabine (NSC613327), 5-fluorouracil (NSC19893), paclitaxel (NSC125973), vemurafenib (NSC761431), MSA-2 (NSC828583), SN-011 (NSC837082), adavosertib (NSC754352), prexasertib (NSC758257), carboplatin (NSC241240) and oxaliplatin (NSC266046), were obtained from the National Cancer Institute (NCI) Developmental Therapeutics Program Chemical Repository (21). The FDA-approved anticancer drug set is available from the Developmental Therapeutics Program at https://dtp.cancer.gov/organization/dscb/obtaining/. […] The stock solutions were prepared in dimethyl sulfoxide (DMSO, Sigma-Aldrich, St. Louis, MO, cat. D2650), except for the platinum compounds which were prepared in saline (Quality Biological, Gaithersburg, MD, cat. 114-055-101), at 800-fold the tested concentration and stored at -70 degrees C prior to their use. All drugs and investigational agents were tested over a range starting from a high concentration at or near the clinical Cmax and decreasing in half-log increments. If the clinical Cmax for an agent had not been determined, the highest concentration tested was 10 microM, except for SN-38, which was tested at a high concentration of 1 microM.
Cell Culture. All cells were maintained in an incubator at 37 degrees C and 5% CO2 with 95% humidity. The PDC lines were cultured according to standard operating procedures established by the NCI PDMR (https://pdmr.cancer.gov). Table 3 of the manuscript, lists the cell lines along with the number of the three cell types plated to form the mct-spheroids and media for tumor cell growth. After thawing, all PDC lines, except 997537-175-T-J1-PDC and 415267-285-R-J2-PDC, were cultured in Matrigel-coated flasks prepared with a working solution of 1X Ham's F-12 nutrient mix, without supplementation (Thermo Fisher Scientific, cat. 11765054), 100 U/mL penicillin-streptomycin (Thermo Fisher Scientific, cat. 15140122), and 2.5% Matrigel (Corning Inc., Corning, NY, cat. 354248) for the first three passages. The two PDC lines 997537-175-T-J1-PDC and 415267-285-R-J2-PDC were cultured on uncoated flasks. The 857933-349-R-J2-PDC line was cultured in 6C/Colon 1B media containing advanced DMEM/F-12 (Thermo Fisher Scientific, cat. 12634028), 10 mM HEPES (Thermo Fisher Scientific, cat. 15630080), 1X GlutaMAX supplement (Thermo Fisher Scientific, cat. 35050061), 0.1 mg/mL primocin (InvivoGen, San Diego, CA, cat. ant-pm-2), 10% defined fetal bovine serum, heat inactivated (HyClone Laboratories Inc., Logan, UT, cat. SH30070.03HI), 50% L-WRN conditioned media (ATCC, cat. CRL-3276), 1.25 mM N-Acetyl-L-cysteine (Sigma-Aldrich, cat. A9165), 10 mM nicotinamide (Sigma-Aldrich, cat. N0636), 1X B-27 supplement (Thermo Fisher Scientific, cat. 17504044), 1X N-2 supplement (Thermo Fisher Scientific, cat. […]
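Further: spheroids exposed to compounds for seven days before readout.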

## CCc1cc2c(N3CCc4c(cc(Cn5ccnc5)cc4-c4cn(C)nc4C(F)(F)F)C3=O)ccnc2c(OC)n1
Compound 0.0316 µM
  viability, T/C: 90% and 97.3% and 94%
Compound 0.1 µM
  viability, T/C: 86.8% and 96.2% and 103%
Compound 0.316 µM
  viability, T/C: 93.4% and 103% and 122%
Compound 1 µM
  viability, T/C: 106% (2×) and 117%
Compound 3.16 µM
  viability, T/C: 125% and 145% and 137%
Compound 10 µM
  viability, T/C: 126% and 117% and 140%
Curve of compound
  IC50: > 10 µM

## CC(C)n1c(=O)n(C)c2cnc3cc(F)c(-c4ccc(OCCCN5CCCCC5)nc4)cc3c21 + Cc1cccc(N(C)C(=O)C2C(O)CCN2c2nc(C)cc(C(F)(F)F)c2C#N)c1
Curve of first compound, second compound 0.0316 µM
  IC50: > 10 µM
Curve of first compound, second compound 0.1 µM
  IC50: > 10 µM
Curve of first compound, second compound 0.316 µM
  IC50: > 10 µM
Curve of first compound, second compound 1 µM
  IC50: > 10 µM
Curve of first compound, second compound 3.16 µM
  IC50: > 10 µM
Curve of first compound, second compound 10 µM
  IC50: > 10 µM
Second compound 0.0316 µM, first compound 0.0316 µM
  viability, T/C: 101%
Second compound 0.0316 µM, first compound 0.1 µM
  viability, T/C: 127%
Second compound 0.0316 µM, first compound 0.316 µM
  viability, T/C: 95.2%
Second compound 0.0316 µM, first compound 1 µM
  viability, T/C: 73.6%
Second compound 0.0316 µM, first compound 3.16 µM
  viability, T/C: 93.2%
Second compound 0.0316 µM, first compound 10 µM
  viability, T/C: 60.7%
Second compound 0.1 µM, first compound 0.0316 µM
  viability, T/C: 99.1%
Second compound 0.1 µM, first compound 0.1 µM
  viability, T/C: 111%
Second compound 0.1 µM, first compound 0.316 µM
  viability, T/C: 98.9%
Second compound 0.1 µM, first compound 1 µM
  viability, T/C: 83.4%
Second compound 0.1 µM, first compound 3.16 µM
  viability, T/C: 73.5%
Second compound 0.1 µM, first compound 10 µM
  viability, T/C: 69.8%
Second compound 0.316 µM, first compound 0.0316 µM
  viability, T/C: 125%
Second compound 0.316 µM, first compound 0.1 µM
  viability, T/C: 118%
Second compound 0.316 µM, first compound 0.316 µM
  viability, T/C: 96.8%
Second compound 0.316 µM, first compound 1 µM
  viability, T/C: 90.8%
Second compound 0.316 µM, first compound 3.16 µM
  viability, T/C: 88.1%
Second compound 0.316 µM, first compound 10 µM
  viability, T/C: 61.9%
Second compound 1 µM, first compound 0.0316 µM
  viability, T/C: 103%
Second compound 1 µM, first compound 0.1 µM
  viability, T/C: 90.8%
Second compound 1 µM, first compound 0.316 µM
  viability, T/C: 95.3%
Second compound 1 µM, first compound 1 µM
  viability, T/C: 91.3%
Second compound 1 µM, first compound 3.16 µM
  viability, T/C: 78.4%
Second compound 1 µM, first compound 10 µM
  viability, T/C: 60.3%
Second compound 3.16 µM, first compound 0.0316 µM
  viability, T/C: 91.8%
Second compound 3.16 µM, first compound 0.1 µM
  viability, T/C: 95.4%
Second compound 3.16 µM, first compound 0.316 µM
  viability, T/C: 88.8%
Second compound 3.16 µM, first compound 1 µM
  viability, T/C: 90.8%
Second compound 3.16 µM, first compound 3.16 µM
  viability, T/C: 80.2%
Second compound 3.16 µM, first compound 10 µM
  viability, T/C: 64.9%
Second compound 10 µM, first compound 0.0316 µM
  viability, T/C: 97.3%
Second compound 10 µM, first compound 0.1 µM
  viability, T/C: 103%
Second compound 10 µM, first compound 0.316 µM
  viability, T/C: 96.5%
Second compound 10 µM, first compound 1 µM
  viability, T/C: 100%
Second compound 10 µM, first compound 3.16 µM
  viability, T/C: 78.9%
Second compound 10 µM, first compound 10 µM
  viability, T/C: 67.1%

## CC(=O)O[C@H]1C(=O)[C@@]2(C)[C@H]([C@H](OC(=O)c3ccccc3)[C@]3(O)C[C@H](OC(=O)[C@H](O)[C@@H](NC(=O)c4ccccc4)c4ccccc4)C(C)=C1C3(C)C)[C@]1(OC(C)=O)CO[C@@H]1C[C@@H]2O
Compound 0.00949 µM
  viability, T/C: 76.7% and 71.7% and 79%
Compound 0.03 µM
  viability, T/C: 72.1% and 64.8% and 76%
Compound 0.0949 µM
  viability, T/C: 54.3% and 61.7% and 67.4%
Compound 0.3 µM
  viability, T/C: 80.9% and 69.8% and 75%
Compound 0.949 µM
  viability, T/C: 73% and 75.7% and 70.2%
Compound 3 µM
  viability, T/C: 61.1% and 82% and 77.6%
Curve of compound
  IC50: > 3 µM

## Nc1ccn(C2OC(CO)C(O)C2(F)F)c(=O)n1 (stereo not drawn)
Compound 0.0316 µM
  viability, T/C: 85.5% and 98.5% and 105%
Compound 0.1 µM
  viability, T/C: 81.7% and 117% and 83.4%
Compound 0.316 µM
  viability, T/C: 81.2% and 85.9% and 88.4%
Compound 1 µM
  viability, T/C: 64.9% and 81.8% and 83.7%
Compound 3.16 µM
  viability, T/C: 84.6% and 85.2% and 85.7%
Compound 10 µM
  viability, T/C: 75.2% and 82.7% and 85.4%
Curve of compound
  IC50: > 10 µM
